Measured values: patent publication US10174067B2, “Type of cytidine derivative and application thereof” (priority 2014, dated 2019)

Assay: in vivo
Conditions: female, mouse, in vivo, ip
Method in brief: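 MTD, the dose without mortality, body-weight loss over 10% from Day 0 or marked adverse signs, was found by stepwise up/down single intraperitoneal dosing of female SPF ICR mice. Vehicle: ethanol:Cremophor EL:saline 5:5:90. Animals weighed daily and clinically checked twice daily for up to 14 days.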

SMILES | MTD at 7 days
CCCCOC(=O)Nc1nc(=O)n([C@@H]2O[C@H](COC(=O)Cn3cnc([N+](=O)[O-])c3)C(O)C2(F)F)cc1I (some centres unmarked) [Compound G12] | 400 mg/kg
O=C(COc1nc(Cl)c(Cl)cc1Cl)OC[C@H]1O[C@@H](n2cc(Br)c(NC(=O)OCc3ccccc3)nc2=O)C(F)(F)C1O (some centres unmarked) [Compound G10] | 400 mg/kg
